Measured values from PMC10897476, “Pyridylpiperazine efflux pump inhibitor boosts in vivo antibiotic efficacy against K. pneumoniae” (EMBO Molecular Medicine, 2023).
“And” between values parts separate entries of the source, which are not always exact repeats. Equal entries are not always repeated. Marks after values point to notes of the source that are not given here.

Legend:
[1] = tested on: K. pneumoniae RamR^mut (K124*stop); experiment: MIC of antibiotics with and without EPI (REMA), RamR mutant; assay type: cell-based, Klebsiella pneumoniae; conditions: for Minimum Inhibitory Concentration: K. pneumoniae RamR^mut
Description: MIC experiments were carried out according to the CLSI guidelines (CLSI [2023]). Overnight cultures were diluted to an OD600 = 0.001 in CAMHB followed by addition of efflux pump inhibitors (EPIs) at a final concentration of 100 µM. […] Plates were incubated at 37 °C for up to 20 h. Bacterial viability was evaluated using the resazurin microtitre assay (REMA) and measured by fluorescence using a Tecan Spaert multimode plate reader (Ex: 530 nm Em: 590 nm). MICs were defined as the concentration that prevented 90% of resazurin turnover compared to the non-treated bacteria.
Mutations in acrB or ramR identified in the BDM88855.HCl (1’) resistant mutant (a.k.a., KPJC11) were introduced individually into K. pneumoniae ATCC 43816 chromosome by allelic exchange (Cianfanelli et al, [2020]). Briefly, 1-kb PCR products centred around each point mutation were generated by amplifying acrB with primers RH1251 ([…][…]) and RH1252 ([…][…]) or ramR with primers RH1249 ([…][…]) and RH1250 ([…][…]) from KPJC11 genomic DNA. PCR fragments were cloned into pFOK (Cianfanelli et al, [2020]) using NEB-building kit ([New England Biolabs]) to generate pEP1533 and pEP1534. Correct plasmids were confirmed by sequencing and introduced into K. pneumoniae ATCC43816 WT via conjugation with the MFDpir+ E. coli donor strain. Exconjugants were selected on kanamycin (50 mg/L) plates at 37 °C and plasmid chromosomal integration was checked by PCR. […] The next day, cultures were diluted and plated onto LB agar. Isolated colonies were then patched onto LB plates with or without kanamycin (50 mg/L) and Km^S candidates were evaluated for correct allelic exchange via acrB or ramR sequencing and then WGS to confirm no additional mutations were introduced.

[2] = tested on: K. pneumoniae ATCC 43816; experiment: K. pneumoniae mouse lung infection (lung CFU); assay type: in vivo, Klebsiella pneumoniae; conditions: for reduction in lung bacterial load compared to untreated mice: at 24 h
Description: Mice experiments complied with national, institutional and European regulations and ethical guidelines, were in accordance with ARRIVE guidelines 2.0 and were approved by the Institutional Animal Care and Use Committee (animal facility agreement D59-350009, Institut Pasteur de Lille, protocol reference: APAFIS#25953, 2020060916081461_v2). Six to eight weeks old female C57BL/6JRj mice were purchased from Janvier Laboratories (Saint Berthevin, France), allocated into experimental groups in a random fashion and maintained in individually ventilated cages (Innorack® IVC Mouse 3.5) and handled in a vertical laminar flow biosafety cabinet (Class II Biohazard, Tecniplast). All infections were performed in an animal biosafety level 2 facility.
Inoculum was prepared as follows. Tryptic Soy broth was inoculated with K. pneumoniae from a frozen stock and grown overnight at 37 °C without shaking. 1 mL of this overnight bacterial culture was transferred to a warm fresh Tryptic Soy broth and grown at 37 °C until it reached the mid-log. Cells were pelleted, washed with PBS and resuspended to the appropriate concentration.
22 h post-infection, mice were treated with BDM91288 (5) (30 mg/kg, 200 µL, formulated in 10% hydroxypropyl-beta-cyclodextrine (Kleptose HP; Roquette) at 3 mg/mL) by intragastric route. […] At 4 h or 24 h post antibiotic treatment, mice were euthanized by cervical dislocation. Lungs were collected in 1 mL of PBS, homogenized with a T-25 digital Ultraturrax® (IKA). CFU counts were determined by plating serial dilutions onto Tryptic Soy agar plate.

[3] = tested on: K. pneumoniae AcrB variant V448E; experiment: Berberine accumulation assay, K. pneumoniae AcrB V448E; assay type: cell-based, Klebsiella pneumoniae; conditions: K. pneumoniae producing AcrB variant V448E
Description: The accumulation of the berberine AcrB substrate in K. pneumoniae WT and AcrB-V448E cells in the presence of different BDM91288 (5) concentrations was determined as described (Plé et al, [2022]) with minor modifications. Briefly, an overnight LB pre-culture of each strain (0.6 mL) was used to inoculate a 30-mL LB culture and incubated for around 2 h (37 °C, 150 rpm) to reach OD600 around 1. Cells were harvested by centrifugation (4000 × g, 10 min at 4 °C), washed three times with 10 mL of ice-cold buffer (50 mM potassium-phosphate pH 7.5 and 1 mM MgSO4) and resuspended into the same buffer containing also 0.2% glucose to an OD600 of 2. The bacterial suspension was then allowed to reach room temperature, after which 200 µL was dispensed to wells of an assay ready 96-black-well plate (Greiner Bio-One) containing 2 µL of 100× concentrated serial dilution of BDM91288 (5). To initiate the uptake experiment, 2 µL of berberine 20 mM (final concentration of 200 µM) was added to each well and transferred to a microplate fluorescence plate reader (Spark, Tecan), where the kinetics of berberine uptake was monitored for 20 min at 30 °C (excitation 365 nm/emission 540 nm). Experiments were performed 4 independent times, and berberine uptake was calculated for all conditions as the rate of fluorescence increase over the first 10 min and expressed as RFU/min (mean ± SD). […]

[4] = tested on: E. coli BW25113; experiment: PyrPip boosting of pyridomycin activity in E. coli (resazurin reduction); assay type: cell-based, Escherichia coli; conditions: read-out: PyrPip antibiotic boosting activity EC90; E. coli BW25113 in the presence of 8 μg/mL pyridomycin, resazurin reduction; mean ± SEM
Description: With the aim of developing a PyrPip for in vivo efficacy studies in mice, it was important to optimise the metabolic stability of these efflux pump inhibitors to guarantee sufficient exposure in mice needed for antibiotic boosting. […] To identify metabolically stabilised PyrPips while maintaining AcrB inhibition, it was therefore decided to explore modifications to the quinoline core as well as the introduction of substituents at position 6 of the quinoline ring.

Row | Compound | Minimum Inhibitory Concentration ([1]; + 100 µM 1') | Minimum Inhibitory Concentration ([1]; + 100 µM 5) | Minimum Inhibitory Concentration ([1]; + 100 µM PAβN) | MIC ([1]; Klebsiella pneumoniae, read-out: Minimum Inhibitory Concentration) | CFU counts, lung, single animals ([2]; 4h post-treatment, levofloxacin 10mg/kg) | CFU counts, lung, single animals ([2]; 4h post-treatment, levofloxacin 50mg/kg) | CFU counts, lung, single animals ([2]; 24h post-treatment, levofloxacin 10mg/kg) | CFU counts, lung, single animals ([2]; 24h post-treatment, levofloxacin 50mg/kg) | reduction in lung bacterial load compared to untreated mice ([2]; single dose 10 mg/kg i.p.) | reduction in lung bacterial load compared to untreated mice ([2]; single dose 50 mg/kg i.p.) | EPI mediated antibiotic boosting, in words ([1]; K. pneumoniae-RamR^mut, Table 2) | concentration-dependent stimulation of berberine uptake [3] | CFU counts, lung, single animals ([2]; 4h post-treatment, BDM91288 + levofloxacin 10mg/kg) | CFU counts, lung, single animals ([2]; 4h post-treatment, BDM91288 alone) | CFU counts, lung, single animals ([2]; 24h post-treatment, BDM91288 + levofloxacin 10mg/kg) | CFU counts, lung, single animals ([2]; 24h post-treatment, BDM91288 alone) | impact on the K. pneumoniae bacterial load in the lungs ([2]; single dose 30 mg/kg p.o., alone) | EC90 [4]
1 | C[C@H]1COc2c(N3CCN(C)CC3)c(F)cc3c(=O)c(C(=O)O)cn1c23 [Levofloxacin] | 0.08^# mg/L | 0.05^# mg/L | 0.04^# mg/L | 0.64 µg/mL | 2830 CFU and 567 CFU and 1330 CFU and 3170 CFU and 3670 CFU and 1830 CFU and 4670 CFU and 7670 CFU and 717 CFU and 3330 CFU and 2170 CFU and 833 CFU and 2000 CFU and 500 CFU and 450 CFU and 150 CFU | 200 CFU and 50 CFU and 267 CFU and 16.7 CFU and 117 CFU and 350 CFU and 583 CFU and 450 CFU and 833 CFU and 1000 CFU and 133 CFU and 667 CFU and 1330 CFU and 1500 CFU and 1170 CFU and 367 CFU | 117 CFU and 83.3 CFU and 15300 CFU and 26700 CFU and 7500 CFU and 1000 CFU and 6330 CFU and 9170 CFU | 16.7 CFU and 167 CFU and 66.7 CFU and 50 CFU and 100 CFU and 83.3 CFU | 3.2 log | 5.9 log |  |  |  |  |  |  |  | 
2 | Clc1cc2cc(N3CCNCC3)ccc2nc1N1CCNCC1 [compound 5] |  |  |  |  |  |  |  |  |  |  | maintained | not observed | 250 CFU and 1500 CFU and 667 CFU and 267 CFU and 483 CFU and 1830 CFU and 1670 CFU and 500 CFU and 1170 CFU and 517 CFU and 833 CFU and 383 CFU and 650 CFU and 550 CFU and 450 CFU and 2670 CFU and 3170 CFU and 1000 CFU and 583 CFU | 433000 CFU and 400000 CFU and 533000 CFU and 817000 CFU and 13800000 CFU and 2670000 CFU and 5170000 CFU and 2330000 CFU and 550000 CFU and 700000 CFU and 1830000 CFU and 250000 CFU and 1030000 CFU and 600000 CFU and 1120000 CFU and 317000 CFU and 1380000 CFU and 167000 CFU and 2500000 CFU and 450000 CFU and 267000 CFU and 567000 CFU | 16.7 CFU and 1500 CFU and 117 CFU and 200 CFU and 850 CFU and 517 CFU and 350 CFU and 683 CFU and 283 CFU | 98300 CFU and 4500000 CFU and 26700000 CFU and 31700000 CFU and 28300000 CFU and 1650000 CFU and 18300000 CFU and 13300000 CFU and 10000000 CFU and 12300000 CFU and 6170000 CFU and 7000000 CFU and 20000000 CFU and 483000 CFU and 16700000 CFU | no impact | 3.3 ± 1.7 µM
